# Experimental data published in patent US9772334B2, “Inflammatory bowel disease markers and therapies for colitis-associated intestinal fibrosis” (THE REGENTS OF THE UNIVERSITY OF CALIFORNIA, priority 2012, dated 2017).
# “Also recorded” adds a separate entry of the source.
# Experiments:
# CCD-18Co fibroblasts = experiment: β-tubulin expression and tubulin distribution in CCD-18Co fibroblasts; assay type: cell-based, human
# [1] = tested on: TNFα expression in human PBMCs; experiment: PAMP induced TNFα protein expression in human PBMCs; assay type: cell-based; conditions: 16 hours
# Procedure: (§1) To identify the anti-inflammatory mechanism of cathelicidin, human PBMCs and mouse macrophages to were exposed to PAMP signals (LPS and E. coli DNA) in the presence of cathelicidin LL-37 or mCRAMP (1-10 μM).
# [2] = tested on: human colonic CCD-18Co fibroblasts; experiment: TGF-β1 and IGF-1 induced collagen (COL1A2) expression in CCD-18Co fibroblasts; assay type: cell-based
# Source text: Collagen (COL1A2) and total ERK protein expression was detected by Western blot analyses and quantitative image densitometry.
# [3] = tested on: human primary colonic fibroblasts; experiment: TGF-β1 and IGF-1 induced COL1A2 mRNA expression in human primary colonic fibroblasts; assay type: cell-based; conditions: LL-37 5-10 μM; 24 hours; p=0.0108 and p=0.0049; concentration dependent
# Procedure: Camp mRNA in Camp^−/− mice was undetectable. […] Collagen (COL1A2) and total ERK protein expression was detected by Western blot analyses and quantitative image densitometry. […] TGF-β1 and IGF-1 induced COL1A2 mRNA expression in colonic fibroblasts (P=0.049) was inhibited by LL-37 (5-10 μM, p=0.001) in concentration dependent manner. […] TGF-β1 and IGF-1 induced COL1A2 mRNA expression in colonic fibroblasts (P=0.0233) was inhibited by LL-37 (5-10 μM, p=0.0108 and p=0.0049) in concentration dependent manner. All experiments are representative of 3 independent experiments.
# [4] = tested on: Akt and ERK phosphorylation in CCD-18Co fibroblasts; experiment: Akt and ERK phosphorylation in CCD-18Co fibroblasts (Western blot); conditions: 30 minutes, concentration dependent
# [5] = tested on: TNFα expression in fresh human colonic biopsies; experiment: LPS induced TNFα protein expression in fresh human colonic biopsies; assay type: cell-based; conditions: LL-37 10 μM; LPS 0.1 μg/ml; 16 hours
# Procedure: Human intestinal biopsies were obtained from normal patients, UC patients and CD patients after informed consent in accordance with procedures established by the Cedars-Sinai Institutional Review Board, IRBs 3358 and 23705 and UCLA Institutional Review Board IRB 11-001527. Baseline characteristics were outlined in FIG. 12B. Some fresh biopsies were frozen until homogenization. Some fresh colonic biopsies were cut into ˜3×3 mm pieces and incubated in serum free DMEM with 1% penicillin/streptomycin (Invitrogen) and exposed to LPS and/or LL-37.
# NCM460 colonocytes = experiment: Apoptosis (cleaved PARP) in NCM460 colonocytes; assay type: cell-based, human; conditions: LL-37 10 μM; proinflammatory cytokine cocktail or TNFα 10 ng/ml; 24 hours
# Procedure: NCM460 cells were treated with proinflammatory cytokines cocktail or TNFα (10 ng/ml) with or without LL-37 (10 μM) for 24 hours. Apoptosis signaling molecule cleaved PARP was determined by Western blot and quantification. […] All experiments are representative of 3 independent experiments.
# CCD-18Co = experiment: Cell migration of CCD-18Co in modified Boyden chamber; assay type: cell-based, human; conditions: LL-37 0-10 μM; 37° C. for 8 hours
# Procedure: (§2) Fibroblasts accumulated in the mucosal and submucosal locations as collagen deposition. […] Three different locations (3 separate images) per sample were counted. […] Cell migration was not affected by LL-37 (0-10 μM). Results are representative of 3 independent experiments.
# TNBS acute colitis = experiment: TNBS treated acute colitis in mice, intracolonic mCRAMP; assay type: in vivo; conditions: for colonic 16S expression: intracolonic
# Source text: FIG. 20A is an illustration of TNBS experimental plan. […] Experiments included n=6 mice per group.
# FIGS. 21B and 21C show colonic Camp mRNA expression of mice. […] There was no significant difference in 16S expression among wild-type and Camp−/− mice. n=6 mice per group.
# [6] = tested on: TNFα expression in Raw264.7 macrophages; experiment: PAMP induced TNFα expression in Raw264.7 macrophages; assay type: cell-based, mouse
# Procedure: as §1
# [7] = tested on: TNFα expression in Raw264.7 macrophages; experiment: as above; assay type: cell-based, mouse; conditions: flagellin 50 ng/ml
# DSS mediated colitis = conditions: intracolonic exogenous peptide; Tai et al. 2007; cited from earlier work
# [8] = tested on: TNBS mediated chronic colitis; experiment: TNBS mediated chronic colitis in mice, intracolonic mCRAMP; assay type: in vivo; conditions: for colonic collagen deposition / TNBS induced colonic TNFα protein expression / colonic colla2 mRNA: intracolonic
# Procedure: FIG. 1A is an illustration of the experimental plan of TNBS mediated chronic colitis. Wild-type and […] mice were injected with TNBS solution (0.5-1 mg per 20 g mice) in 30% ethanol or 30% ethanol only (vehicle control) under transient isoflurane anesthesia. […] All ethanol treated groups had approximately 20% body weight gain. […] Results are representative of n=6 mice per group.
# Collagen was stained in blue. Collagen deposited in mucosal and submucosal layer of TNBS treated wild-type mice was reduced by CRAMP treatment. […] Intracolonic treatment of mCRAMP reduced colonic colla2 mRNA and collagen deposition in both WT (p=0.0364) and Camp^−/− (p=0.04) mice. Results are representative of n=6 mice per group.
# as §2
# [9] = tested on: Akt and ERK phosphorylation in Raw 264.7 macrophages; experiment: LPS induced Akt and ERK phosphorylation in Raw 264.7 macrophages; assay type: cell-based, mouse; conditions: mCRAMP 10 μM; 30 minutes
# Source text: […]. LPS induced TNFα expression is Akt dependent. […] All experiments are representative of 3 independent experiments.
substance,measurement,setting,value
LL-37 (LLGDFFRKSKEKIGKEFKRIVQRIKDFLRNLVPRTES),tubulin distribution (tubulin tracker),"CCD-18Co fibroblasts; 10 μM, 24 hours",shrunk the tubulin network
same,β-tubulin expression,"CCD-18Co fibroblasts; LL-37 10 μM, 72 hours",inhibition
same,LPS induced TNFα protein expression in conditioned media,"[1]; LL-37 10 μM, LPS 0.1 μg/ml",significantly reduced
same,E. coli DNA induced TNFα expression,"[1]; LL-37 1-10 μM, E. coli DNA 0.5 μg/ml",no inhibitory effect
same,"TGF-β1 and IGF-1 induced COL1A2 expression (Western blot, densitometry)","[2]; 10 μM LL-37, TGF-β1 50 ng/ml and IGF-1 10 ng/ml, 48 hours, p=0.0001",significantly reduces; also recorded: reduced
same,TGF-β1 and IGF-1 induced COL1A2 mRNA expression,"[2]; LL-37 5-10 μM, 24 hours, p=0.001, concentration dependent",significantly reduces; also recorded: inhibited
same,TGF-β1 and IGF-1 induced COL1A2 mRNA expression,[3],inhibited
same,ERK phosphorylation,[4]; LL-37 up to 10 μM,significantly induced
same,Akt phosphorylation,[4],significantly induced
same,LPS induced TNFα protein expression in conditioned media,[5],almost abolished
same,"apoptosis (cleaved PARP, Western blot)",NCM460 colonocytes,failed to reverse PARP cleavage; also recorded: did not affect apoptosis
same,cell migration,CCD-18Co,not affected
mCRAMP,colonic TNFα levels,TNBS acute colitis; Camp−/− mice,significantly reduced colonic TNFα levels
same,colonic 16S expression,TNBS acute colitis; Camp−/− mice,significantly reduced colonic 16S expression
same,histological damage (histological score),"TNBS acute colitis; Camp−/− mice, p=0.0484",significantly reduced histological damage
same,colonic TNFα levels,TNBS acute colitis; wild-type mice,significantly reduced colonic TNFα levels
same,colonic 16S expression,TNBS acute colitis; wild-type mice,significantly reduced colonic 16S expression
same,histological damage (histological score),"TNBS acute colitis; wild-type mice, p=0.0006",significantly reduced histological damage
same,LPS induced TNF mRNA expression,"[6]; mCRAMP 10 μM, 6 and 16 hours",did not alter
same,LPS induced TNFα protein expression in conditioned media,"[6]; mCRAMP 10 μM, LPS 0.1 μg/ml, 16 hours",significantly reduced
same,E. coli DNA induced TNFα expression,"[6]; mCRAMP 1-10 μM, E. coli DNA 0.5 μg/ml, 16 hours",no inhibitory effect
same,flagellin induced TNFα expression,[7],no inhibitory effect
same,DSS mediated colitis,DSS mediated colitis,ameliorates DSS mediated colitis
same,colonic collagen deposition,[8]; Camp−/− mice,reduced
same,TNBS induced colonic TNFα protein expression,"[8]; Camp−/− mice, p=0.0054",significantly reduced TNBS induced TNFα protein expression
same,colonic colla2 mRNA,"[8]; Camp−/− mice, p=0.04",reduced
same,histology score (H&E),"[8]; Camp−/− mice, p=0.04",significantly reduced histology score
same,percent of body weight change (week 0 to week 7),[8]; TNBS treated Camp−/− mice,significant body weight loss regardless of mCRAMP treatment
same,collagen deposited in mucosal and submucosal layer (Masson Trichrome staining),[8]; TNBS treated wild-type mice,reduced
same,percent of body weight change (week 0 to week 7),"[8]; TNBS treated wild-type mice, p=0.01",restored the body weight gain
same,colonic vimentin mRNA expression,[8]; WT and Camp−/− mice,did not affect
same,colonic α-SMA mRNA expression,[8]; WT and Camp−/− mice,did not affect
same,colonic collagen deposition,[8]; WT mice,reduced
same,TNBS induced colonic TNFα protein expression,"[8]; WT mice, p=0.0127",significantly reduced TNBS induced TNFα protein expression
same,colonic colla2 mRNA,"[8]; WT mice, p=0.0364",reduced
same,"fibroblast accumulation (number of fibroblasts per field, vimentin immunohistochemistry)",[8]; chronic TNBS colitis,not affected
same,TNBS induced intestinal fibrosis,[8]; mCRAMP 5 mg/kg intracolonically,significantly reduces TNBS induced intestinal fibrosis
same,histology score (H&E),"[8]; wild-type mice, p=0.03",significantly reduced histology score
same,LPS induced Akt phosphorylation,[9],significantly suppressed
same,LPS induced ERK phosphorylation,[9],significantly suppressed
